Results as given in patent US20150305334A1, “USE OF SUBSTITUTED 1-(ARYL ETHYNYL)-, 1-(HETEROARYL ETHYNYL)-, 1-(HETEROCYCLYL ETHYNYL)- AND 1-(CYCLOALKENYL ETHYNYL)-CYCLOHEXANOLS AS ACTIVE AGENTS AGAINST ABIOTIC PLANT STRESS” (BAYER CROPSCIENCE AG, priority 2012, published 2015).

Assays:
Format in all cases: in vivo
Brassica napus = assay: Drought stress test on greenhouse crop plants, spray application, efficacy vs untreated stressed control (BRSNS); conditions: dosage 250 g/ha
Experimental: (§1) Seeds of monocotyledonous and dicotyledonous crop plants were laid out in sandy loam in wood-fiber pots, covered with soil or sand and cultivated in a greenhouse under good growth conditions. The test plants were treated at the early leaf stage (BBCH10-BBCH13). To assure uniform water supply before commencement of stress, the potted plants were supplied with water by dam irrigation prior to substance application. The compounds according to the invention, formulated in the form of wettable powders (WP), were sprayed onto the green parts of the plants as an aqueous suspension at an equivalent water application rate of 600 l/ha with addition of 0.2% wetting agent (e.g. agrotin). Substance application was followed immediately by stress treatment of the plants. For this purpose, the pots were transferred into plastic inserts in order to prevent them from subsequently drying out too quickly. […] After the recovery phase had ended, the intensities of damage were analyzed in visual comparison to untreated, unstressed controls of the same age. The intensity of damage was first recorded as a percentage (100%=plants have died, 0%=like control plants). […] EF: efficacy (%) DVus: damage value of the untreated, stressed control DVts: damage value of the plants treated with test compound In each trial, 3 pots per crop and dosage were treated and evaluated; the resulting efficacies are thus averages. […]

Triticum aestivum = assay: Drought stress test on greenhouse crop plants, spray application, efficacy vs untreated stressed control (TRZAS); conditions: dosage 25 g/ha
Experimental: as §1

Zea mays = assay: Drought stress test on greenhouse crop plants, spray application, efficacy vs untreated stressed control (ZEAMX); conditions: dosage 25 g/ha
Experimental: as §1

SMILES | EF (BRSNS) (Brassica napus) | EF (TRZAS) (Triticum aestivum) | EF (ZEAMX) (Zea mays)
CC1CCCC(C)(C)C1(O)C#Cc1ccccc1C(=O)O (centres unmarked) [I.1-107, 2-[(1-Hydroxy-2,2,6-trimethylcyclohexyl)ethynyl]benzoic acid] | >5% |  | 
COC(=O)c1ccccc1C#CC1(O)C(C)CCCC1(C)C (centres unmarked) [I.1-116, Methyl 2-[(1-hydroxy-2,2,6-trimethylcyclohexyl)ethynyl]benzoate] | >5% | >5% | >5%
COC(=O)c1ccccc1C#CC1(O)C(C)CCCC1C (centres unmarked) [I.13-116, Methyl 2-[(1-hydroxy-2,6-dimethylcyclohexyl)ethynyl]benzoate] |  |  | >5%
